Entries after “also recorded” stand apart in the source; their conditions may differ.
How the values were obtained:
[1] = system: explanted human lung tissue from patients with idiopathic pulmonary fibrosis; test: Fibrosis-related gene expression (nCounter Fibrosis Panel) in precision cut lung slices; format: cell-based
From the text: Briefly, tissue samples from patients with IPF were acquired at the time of lung transplantation. […] Treated slices were lysed in mRNA-compatible buffer for gene expression analysis. For this study, the lysate from n=6 slices per treatment per lung were pooled for analysis using the nCounter Fibrosis Panel (Nanostring) on the nCounter Max analyzer (Nanostring). This commercially available panel of 770 genes includes genes related to initial tissue damage response, chronic inflammation, proliferation of pro-fibrotic cells, and tissue modification leading to fibrotic disease. Technical quality control and normalization of raw Nanostring mRNA count data was performed using an R framework developed by Bhattacharya et al. (Bhattacharya A. et al., Brief Bioinform. 2021 May 20; 22(3):bbaa163; herein incorporated by reference in its entirety). The R packages limma (see URL www.bioconductor.org/packages/release/bioc/html/limma.html, which is incorporated herein by reference in its entirety) and voom (Law, C.

[2] = system: PRO-C3, Type III collagen synthesis neoepitope; test: Phase 2a clinical trial: serum biomarker PRO-C3; format: in vivo, human; settings: IPF participants, 40 to 320 mg, 4 to 24 weeks
Experimental: Blank columns represent 40 mg Compound 5 dosage. Grid pattern filled columns represent 80 mg Compound 5 dosage. Diagonal line filled columns represent 160 mg Compound 5 dosage. Dot filled columns represent all participants dosed with Compound 5. […] In FIG. 21, LS refers to Least Squares and SEM refers to Standard Error of Mean.
PRO-C3 and PRO-C6, serum biomarkers of type III and VI collagen synthesis, respectively, were previously shown to be elevated in patients with IPF and associated with progressive disease, according to Respir Res. 2019 Jul. 12; 20(1):148. Doi: 10.1186/s12931-019-1118-7, which is herein incorporated by reference in its entirety. Change from baseline was analyzed using a mixed model for repeated measures with terms for treatment group, visit, baseline value, and treatment-by-visit interaction. LS refers to Least Squares; SE refers to Standard Error.
Med. 2022 June; 10(6):593-602, which is incorporated herein by reference in its entirety. […] Res. 2019 Jul. 12; 20(1):148, which is incorporated herein by reference in its entirety. ** denotes that p<0.01 vs placebo. LS refers to Least Squares. SE refers to Standard Error. Integrin beta-6 data was reported in relative quantitation log2 scale.

[3] = system: participants with idiopathic pulmonary fibrosis (IPF); test: Phase 2a clinical trial ([…]-IPF): Forced Vital Capacity (FVC) spirometry; format: in vivo, human
Experimental: Study Design and Objectives. […] At Day 1, baseline values were collected.
Data shown from left to right is participants treatment with 40 mg Compound 5, 80 mg Compound 5, 160 mg Compound 5, all participants treated with Compound 5, and participants treated with Placebo. Change from baseline was analyzed using a mixed model for repeated measures with terms for treatment group, SOC (Y/N), visit, baseline value, and treatment-by-visit interaction. An unstructured covariance (UN) structure was used.
[…]-IPF study design and objectives.
The histograms from left to right are 40 mg (n=22) with a LS Mean (SE) change from Baseline in FVC (mL) at Week 12 of −48.6, 80 mg (n=23) with a LS Mean (SE) change from Baseline in FVC (mL) at Week 12 of 22.8, 160 mg (n=22) with a LS Mean (SE) change from Baseline in FVC (mL) at Week 12 of −28.7, 320 mg (n=21) with a LS Mean (SE) change from Baseline in FVC (mL) at Week 12 of 26.8, and placebo (n=31) with a LS Mean (SE) change from Baseline in FVC (mL) at Week 12 of −64.2. Change from baseline in FVC analyzed using a mixed model for repeated measures (MMRM) with terms for treatment group, use of SOC, week and baseline value. FVC=Forced Vital Capacity. mITT=Modified Intent to Treat. * p<0.05. **p<0.01.
At Day 1, baseline values were collected.

[4] = FIG. 24 Venn region E: only altered by Compound 5 in the absence of pirfenidone
[5] = gene expression, combination vs individual treatment
[6] = single treatment, adj. p-value <0.05

COCCN(CCCCc1ccc2c(n1)NCCC2)CC[C@H](Nc1ncnc2ccccc12)C(=O)O [Compound 5, (S)-4-((2-methoxyethyl) (4-(5,6,7,8-tetrahydro-1,8-naphthyridin-2-yl)butyl)amino)-2-(quinazolin-4-ylamino) butanoic acid]
Genes Down-regulated with Compound 5 and Pirfenidone Alone or in Combination, region E [1, 4]: COL3A1 and COL6A3 and LOXL1 and MARCO and MMP8 and PLPP4
Genes Up-regulated with Compound 5 and Pirfenidone Alone or in Combination, region E [1, 4]: APOA2 and CIITA and IFI6 and NOS1 and OAS1 and TTN
Genes Down-regulated with Compound 5 and Pirfenidone Alone or in Combination, region F ([1]; FIG. 24 Venn region F: altered by Compound 5 or pirfenidone alone, but not by Compound 5 in combination with pirfenidone): CXCR4; also recorded: PECAM1
Genes up-regulated, Venn region E (FIG. 24) ([1]; IPF precision cut lung slices, 7 days, only altered by Compound 5 in the absence of nintedanib): APOA2 and CCL13 and CIITA and IFI6
% Reduction APOC2 [1, 5]: −1.20%
% Reduction CDH2 [1, 5]: 23.87%
% Reduction COL1A1 [1, 5]: 38.78%
% Reduction THBS2 [1, 5]: 31.47%
logFC ALDH7A1 [1, 6]: 0.57
logFC OAS1 [1, 6]: 0.6104
Serum PRO-C3, change from baseline relative to placebo [2]: decreased; also recorded: reduced; also recorded: dose-dependent reduction
LS Mean (SE) change from Baseline in FVC at Week 12, mITT, FIG. 27 ([3]; 40 mg (n=22), placebo (n=31) −64.2): -48.6 mL
Treatment effect on FVC with and without use of standard-of-care agents ([3]; 12 weeks): evident; also recorded: observed

Source: US20240122930A1, “INTEGRIN INHIBITORS AND USES THEREOF IN COMBINATION WITH OTHER AGENTS” (Pliant Therapeutics, Inc., priority 2022, published 2024)
